In brackets after ≈: the same amount, converted by molar mass.
Experiments:
[1] = tested on: Plasmodium yoelii; test: In vivo antimalarial activity against chloroquine resistant Plasmodium yoelii N-67 infected in Swiss albino mouse assessed as suppression of parasitemia at 10 mg/kg relative to control; format: functional
[2] = tested on: Plasmodium falciparum; test: Antimalarial activity against Plasmodium falciparum assessed as increase in parasite swelling diameter at ring stage after 2 hrs by time-lapse live cell imaging (reference value: […]); format: functional
[3] = tested on: Plasmodium falciparum; test: Antimalarial activity against chloroquine sensitive Plasmodium falciparum 3D7 incubated for 72 hrs by malaria SYBR green I nucleic acid staining dye based fluorescence assay; format: functional, organism-based; conditions: 3D7, 72 h
[4] = tested on: Plasmodium falciparum; test: Antimalarial activity against chloroquine resistant Plasmodium falciparum K1 incubated for 72 hrs by malaria SYBR green I nucleic acid staining dye based fluorescence assay; format: functional, organism-based; conditions: K1, 72 h
[5] = tested on: HepG2; test: Cytotoxicity against human HepG2 cells; format: functional, cell-based
[6] = tested on: Plasmodium yoelii; test: In vivo antimalarial activity against Plasmodium yoelii infected in mouse; format: functional
[7] = tested on: Plasmodium falciparum; test: Antimalarial activity against Plasmodium falciparum Dd2; format: functional, organism-based
[8] = tested on: Plasmodium berghei; test: In vivo antimalarial activity against Plasmodium berghei infected in Balb/C mouse model assessed as parasite clearance at 30 mg/kg, po administered every 24 hrs for 3 days followed by chloroquine addition measured on day 4 by flow cytometric analysis relative to control; format: functional; conditions: time 4 day
[9] = tested on: Plasmodium falciparum; test: Antimalarial activity against Plasmodium falciparum NF54; format: functional, organism-based
[10] = tested on: Plasmodium falciparum; test: Antimalarial activity against Plasmodium falciparum K1; format: functional, organism-based
[11] = Inhibition of Plasmodium falciparum DHODH expressed in Escherichia coli BL21 (DE3) cells by DCIP staining method
[12] = biological target: Voltage-gated inwardly rectifying potassium channel KCNH2 (Homo sapiens, UniProt Q12809); test: Inhibition of human ERG; format: toxicity
Sequence of Voltage-gated inwardly rectifying potassium channel KCNH2 (Q12809 whole entry): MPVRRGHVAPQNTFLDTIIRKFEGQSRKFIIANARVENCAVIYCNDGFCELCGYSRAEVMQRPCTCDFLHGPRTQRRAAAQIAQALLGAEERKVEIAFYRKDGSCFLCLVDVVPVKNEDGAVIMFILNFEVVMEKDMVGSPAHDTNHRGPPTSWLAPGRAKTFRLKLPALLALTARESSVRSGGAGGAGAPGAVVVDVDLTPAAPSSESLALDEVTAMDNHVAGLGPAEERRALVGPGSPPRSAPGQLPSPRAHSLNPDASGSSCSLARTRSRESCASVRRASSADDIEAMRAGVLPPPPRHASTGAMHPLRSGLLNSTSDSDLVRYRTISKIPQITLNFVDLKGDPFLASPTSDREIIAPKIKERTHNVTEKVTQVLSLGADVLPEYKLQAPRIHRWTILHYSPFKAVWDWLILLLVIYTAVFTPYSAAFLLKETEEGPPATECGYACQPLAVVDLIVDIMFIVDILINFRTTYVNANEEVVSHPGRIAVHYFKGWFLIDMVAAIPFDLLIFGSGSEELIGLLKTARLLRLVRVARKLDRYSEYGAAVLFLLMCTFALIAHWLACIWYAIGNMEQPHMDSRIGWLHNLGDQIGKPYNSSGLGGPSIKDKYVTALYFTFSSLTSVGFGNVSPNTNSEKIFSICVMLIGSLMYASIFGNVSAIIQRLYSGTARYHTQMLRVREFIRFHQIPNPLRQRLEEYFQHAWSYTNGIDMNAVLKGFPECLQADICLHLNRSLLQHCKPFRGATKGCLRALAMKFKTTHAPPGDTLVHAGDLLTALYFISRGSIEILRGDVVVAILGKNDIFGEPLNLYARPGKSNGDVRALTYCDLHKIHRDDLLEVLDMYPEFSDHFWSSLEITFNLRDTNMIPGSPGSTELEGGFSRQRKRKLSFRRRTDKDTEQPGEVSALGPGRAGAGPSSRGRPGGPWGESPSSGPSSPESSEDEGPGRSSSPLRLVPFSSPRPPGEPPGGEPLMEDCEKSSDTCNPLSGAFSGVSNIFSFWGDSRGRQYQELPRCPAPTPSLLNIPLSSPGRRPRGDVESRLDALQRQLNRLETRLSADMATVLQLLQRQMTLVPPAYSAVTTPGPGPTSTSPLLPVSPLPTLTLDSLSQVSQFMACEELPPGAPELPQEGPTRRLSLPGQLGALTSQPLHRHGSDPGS

[13] = tested on: Plasmodium falciparum; test: In vivo antimalarial activity against Plasmodium falciparum infected in SCID mouse; format: functional
[14] = biological target: CYP450 (Homo sapiens, UniProt P04798+P05177+P05181+P08684+P10632+P10635+P11509+P11712+P13584+P20813+P20815+P20853+P24462+P24903+P33260+P33261+P51589+P78329+P98187+Q02928+Q08477+Q16678+Q16696+Q5TCH4+Q6VVX0+Q7Z449+Q8TAV3+Q96SQ9+Q9HB55); test: Inhibition of CYP450 (unknown origin); format: ADME, protein assay
[15] = Inhibition of Plasmodium vivax DHODH
[16] = Dissociation constant, pKa of compound; format: physicochemical
[17] = tested on: Plasmodium falciparum; test: Antimalarial activity against chloroquine-sensitive Plasmodium falciparum 3D7 by Giemsa staining method; format: functional, organism-based
[18] = tested on: Plasmodium falciparum; test: Antimalarial activity against multidrug resistant Plasmodium falciparum Dd2 incubated for 72 hrs by malaria SYBR green I nucleic acid staining dye based fluorescence assay; format: functional, organism-based; conditions: Dd2, 72 h
[19] = tested on: Plasmodium falciparum; test: Antimalarial activity against Plasmodium falciparum 3D7; format: functional, organism-based
[20] = tested on: Plasmodium falciparum; test: Antimalarial activity against chloroquine sensitive Plasmodium falciparum NF54 incubated for 48 hrs by SYBR green I fluorescence based assay; format: functional, organism-based; conditions: NF54, 48 h
[21] = tested on: Plasmodium falciparum; test: Antimalarial activity against chloroquine resistant Plasmodium falciparum K1 incubated for 48 hrs by SYBR green I fluorescence based assay; format: functional, organism-based; conditions: K1, 48 h
[22] = tested on: Plasmodium falciparum; test: Antimalarial activity against chloroquine resistant Plasmodium falciparum Dd2 incubated for 48 hrs by SYBR green I fluorescence based assay; format: functional, organism-based; conditions: Dd2, 48 h
[23] = tested on: Plasmodium falciparum; test: Antimalarial activity against chloroquine resistant Plasmodium falciparum W2 incubated for 48 hrs by SYBR green I fluorescence based assay; format: functional, organism-based; conditions: W2, 48 h
[24] = tested on: Plasmodium falciparum; test: Antiplasmodial activity against chloroquine sensitive Plasmodium falciparum NF54 by parasite lactate dehydrogenase assay; format: functional, organism-based
[25] = tested on: Plasmodium falciparum; test: In vivo antimalarial activity against Plasmodium falciparum infected in NMRI mouse; format: functional
[26] = tested on: Plasmodium falciparum; test: Antimalarial activity against Plasmodium falciparum 3D7 incubated for 72 hrs by SYBR-green method; format: functional, organism-based; conditions: 3D7, 72 h
[27] = Inhibition of Plasmodium falciparum DHODH expressed in Escherichia coli BL21 cells using L-dihydroorotate as substrate by DCIP staining method
[28] = tested on: Plasmodium berghei; test: In vivo antimalarial activity against Plasmodium berghei infected in mouse model; format: functional
[29] = tested on: Plasmodium yoelii; test: In vivo antimalarial activity against chloroquine resistant Plasmodium yoelii N-67 infected in Swiss albino mouse assessed as suppression of parasitemia at 25 mg/kg measured upto 28 days relative to control; format: functional; conditions: time <= 28 day

Compound: CC(C)C[C@@H](CN1CCN(C)CC1)Nc1ccnc2cc(Cl)ccc12.Cl
- Activity [1]: 100%

Compound: CC(C)c1nc2ccccc2n1CC(=O)Nc1c(-c2ccc(Cl)cc2F)c(C(F)(F)F)nn1C
- Activity [2]: 4.6 µm

Compound: CC1CCN(C[C@@H](CC2CCCCC2)Nc2ccnc3cc(Cl)ccc23)CC1
- IC50 [3]: 938 nM
- IC50 [4]: 7 nM

Compound: COc1cc2[nH]c(C)c(-c3ccc(Oc4ccc(OC(F)(F)F)cc4)cc3)c(=O)c2cc1Cl
- IC50 [5]: > 10 µM
- ED90 [6]: 0.02 mg/kg
- EC50 [7]: 2.5 nM

Compound: CN1CCN(c2nc(Cl)cc(NCCNc3ccnc4cc(Cl)ccc34)n2)CC1
- Activity [8]: 93.9%

Compound: COC(=O)N1CCN(C(=N)c2cccc(NC(=O)Nc3ccc(S(=O)(=O)NCc4ccc(S(N)(=O)=O)cc4)cc3)c2)CC1
- EC50 [9]: 2 nM
- EC50 [10]: 5 nM

Compound: COC(=O)[C@]1(C)C[C@H](c2ccccc2)N2[C@@H](C)CC(=O)N21
- IC50 [11]: 2900 nM

Compound: Cc1cc(Nc2ccc(S(F)(F)(F)(F)F)cc2)n2nc(C(C)(F)F)nc2n1 [DSM-265]
- IC50 [9]: 1.8 nM
- IC50 [12]: 1660 nM
- ED90 [13]: 3 mg/kg
- IC50 [14]: > 10 µg/mL
- IC50 [15]: 48.1 nM
- IC50 [10]: 2.6 nM

Compound: c1cc([C@H]2CC[C@]3(CC2)OO[C@]2(O3)C3CC4CC(C3)CC2C4)ccc1OCCN1CCOCC1 [ARTEFENOMEL]
- IC50 [9]: 4.6 nM
- pKa [16]: 7
- IC50 [10]: 3.8 nM

Compound: O=[N+]([O-])c1cccc(-c2csc(Nc3nc(NNc4ccccc4)nc(NNc4ccccc4)n3)n2)c1
- IC50 [17]: 11.3 µg/mL (≈ 22 µM)

Compound: CC(=O)N1CCN(c2ccc(CN(C(=O)/C=C/c3ccc(C(C)(C)C)cc3)[C@@H](Cc3ccccc3)C(=O)N3CCN(Cc4ccc(C#N)cc4)CC3)cc2)CC1
- IC50 [9]: 0.4 nM
- ED90 [13]: 3.7 mg/kg
- pKa [16]: 6.8
- IC50 [10]: 0.3 nM

Compound: CCN(CC)CCCC(C)Nc1ccnc2cc(Cl)ccc12 (configuration not stated) [CHLOROQUINE]
- EC50 [18]: 165 nM

Compound: COc1ccc(NC(=O)N2CCCCN3[C@H](CN(C)C)[C@H](c4ccc(C#Cc5ccccc5)cc4)[C@@H]3C2)cc1
- IC50 [12]: 2100 nM
- CC50 [5]: 9 µM
- pKa [16]: 5
- EC50 [7]: 3 nM
- EC50 [19]: 9 nM

Compound: CC(C)(C)c1cc(O)c(CN)c(C(C)(C)C)c1
- IC50 [9]: 91.5 nM
- pKa [16]: 7.2
- IC50 [10]: 9.6 nM

Compound: CC1CCCN(C[C@H](C)Nc2ccnc3cc(Cl)ccc23)C1 (some centres not stated)
- IC50 [3]: 14 nM
- IC50 [4]: 21 nM

Compound: C[C@H]1[C@H](N2CCNCC2)O[C@@H]2O[C@]3(C)CC[C@H]4[C@H](C)CC[C@@H]1[C@@]24OO3
- IC50 [20]: 3.1 nM
- IC50 [21]: 1.9 nM
- IC50 [22]: 1.7 nM
- IC50 [23]: 1.4 nM

Compound: CCOC(=O)C(=CNc1cccc(N(C)C)c1)C(=O)OCC
- IC50 [24]: 26 µM

Compound: C[C@H]1Cc2c([nH]c3cc(Cl)c(F)cc23)[C@@]2(N1)C(=O)Nc1ccc(Cl)cc12 [CIPARGAMIN]
- pKa [16]: 4.6
- ED90 [25]: 2.7 mg/kg

Compound: Cc1nc(Nc2ccc(S(F)(F)(F)(F)F)cc2)c2c(C)noc2n1
- EC50 [26]: 17 nM
- IC50 [27]: 36 nM

Compound: CC1(C)c2nc(-c3ccc(F)cc3)c(Nc3ccc(F)cc3)n2CCN1C(=O)CN [GANAPLACIDE]
- IC50 [12]: 13400 nM
- pKa [16]: 7.3
- IC50 [14]: > 6 µM
- ED99 [28]: 2.2 mg/kg

Compound: CC(C)C[C@@H](CN1CCN(C)CC1)Nc1ccnc2cc(Cl)ccc12
- Activity [29]: 100%
- IC50 [3]: 8.8 nM
- IC50 [4]: 13.6 nM

Reference: ChEMBL document CHEMBL5104092, “An insight into the recent development of the clinical candidates for the treatment of malaria and their target proteins” (Eur J Med Chem, 2021)
